This is an account of results in PMC2074523, “Bioavailability and pharmacokinetics of oral topotecan: a new topoisomerase I inhibitor” (British Journal of Cancer, 1996).

Values joined by “and” are separate entries in the source; they are usually repeats but may differ in a detail not shown here. Identical values can stand only once. Counter-ions that a name gives are not always drawn.

Series [1] in a line: clinical. To be noted: for Vd: 1.5 mg m-2, volume of distribution at steady state (Vd,ss). From the text:
British Journal of Cancer (1996) 73, 1268-1271 ff* (C) 1996 Stockton Press All rights reserved 0007-0920/96 $12.00 Bioavailability and pharmacokinetics of oral topotecan: a new topoisomerase I inhibitor JHM Schellens', GJ Creemers', JH Beijnen2, H Rosing2, M de Boer-Dennert', M McDonald3, B Davies4 and J Verweij' 'Department of Medical Oncology, Rotterdam Cancer Institute, 3075 EA Rotterdam, The Netherlands; 2Slotervaart Hospital, Amsterdam, The Netherlands; 3SmithKline & Beecham, UK; 4SmithKline & Beecham, USA. […] The oral dose of 1.5 mg m 2 was administered as a drinking solution of 200 ml on day 1. The i.v. dose of 1.5 mg m-2 was administered as a 30 min continuous infusion on day 2. The bioavailability was calculated as the ratio of the oral to i.v. area under the curve (AUC) calculated up to the last measured time point. […] Keywords: topotecan; bioavailability; topoisomerase I inhibitor Topotecan (SKF 104864) [(S)-9-dimethylaminomethyl-10- hydroxycamptothecin hydrochloride] is a semisynthetic water-soluble analogue of camptothecin (Hsiang and Liu, 1988). Like camptothecin, topotecan is a specific inhibitor of topoisomerase I (Hsiang and Liu, 1988). Topotecan incorporates a stable basic side-chain at the 9-position of the A-ring, which provides water solubility at acid pH. Topotecan is converted to its lactone ring-opened hydrolysis product (hydroxy acid), which reversible pathway is strongly pH dependent. The biological activity of the hydroxy acid has not been fully elucidated (Kingsbury et al., 1991). […] In the present study the bioavailability and pharmacoki- netics of oral topotecan are explored in patients with solid tumours with the aim of providing a basis for further development of clinical studies using chronic oral topotecan. […] The performance status had to be < 2 on the WHO scale and life expectancy >3 months. The minimum age was 18 and maximum age 75 years. The haemoglobulin had to be >6.0 mmol 1 -1 (9 g dl-'), WBC? 3500 ul -', granulocytes , 1000 l-d and platelets >100 000 jil-'. The serum creatinine had to be < 140 imol 1-1 (1.6 mg dl-'), the serum bilirubin <26 µmol 1` (1.5 mg dl-') and alkaline phospha- tase and transaminases <2 times the upper normal limit if liver metastases were absent or -5 times the upper normal limit if liver metastases were present. Topotecan was administered orally and intravenously at a dose of 1.5 mg m-2. Topotecan as supplied for intravenous infusion was diluted for oral dosage. […] The dose was placed in a beaker containing 100 ml of 5% dextrose injection solution. On day 1, patients were asked to drink the entire contents. Subsequently, an additional 100 ml of 5% dextrose injection solution was added to the beaker and taken by the patient. On day 2 topotecan was administered at the same dose as a continuous 30 min intravenous infusion.

Details of series [2]: method as in unpublished data. To be noted: mean (s.d. 16.3), ref unpublished data; cited from earlier work.
Series [3] is described as follows: Acute tolerability of oral drinking solution and i.v. infusion of topotecan in patients. In kind it is in vivo, human. The source says:
British Journal of Cancer (1996) 73, 1268-1271 ff* (C) 1996 Stockton Press All rights reserved 0007-0920/96 $12.00 Bioavailability and pharmacokinetics of oral topotecan: a new topoisomerase I inhibitor JHM Schellens', GJ Creemers', JH Beijnen2, H Rosing2, M de Boer-Dennert', M McDonald3, B Davies4 and J Verweij' 'Department of Medical Oncology, Rotterdam Cancer Institute, 3075 EA Rotterdam, The Netherlands; 2Slotervaart Hospital, Amsterdam, The Netherlands; 3SmithKline & Beecham, UK; 4SmithKline & Beecham, USA. […] The oral dose of 1.5 mg m 2 was administered as a drinking solution of 200 ml on day 1. The i.v. dose of 1.5 mg m-2 was administered as a 30 min continuous infusion on day 2. The bioavailability was calculated as the ratio of the oral to i.v. area under the curve (AUC) calculated up to the last measured time point. […] Keywords: topotecan; bioavailability; topoisomerase I inhibitor Topotecan (SKF 104864) [(S)-9-dimethylaminomethyl-10- hydroxycamptothecin hydrochloride] is a semisynthetic water-soluble analogue of camptothecin (Hsiang and Liu, 1988). Like camptothecin, topotecan is a specific inhibitor of topoisomerase I (Hsiang and Liu, 1988). Topotecan incorporates a stable basic side-chain at the 9-position of the A-ring, which provides water solubility at acid pH. […]

Setting [4] is: Table I, patients 1-12 in order, oral 1.5 mg m-2.

Consider `CC[C@@](O)(C(=O)O)c1cc2n(c(=O)c1CO)Cc1cc3c(CN(C)C)c(O)ccc3nc1-2` [hydroxy acid], for which, in series [1] (human, in vivo), the “plasma concentration-time curves of the hydroxy acid compared with topotecan” value is listed as “higher than those of topotecan”; the “ratio of the AUC(t) of the hydroxy acid after oral and i.v. administration” value is listed as 0.38 ± 0.12. Moreover, in series [1] (human, in vivo, iv), the “Cmax of the hydroxy acid” value amounted to 18.97 ± 2.44 ng/mL and the “terminal t1/2 of the hydroxy acid” value was 3.22 ± 0.73 h. Further, in series [1] (human, in vivo, iv, 1.5 mg), the “AUC(t) of hydroxy acid, i.v.” value amounted to 73.25 ng/h/mL. In addition, in series [1] (human, in vivo, po), the “Cmax of the hydroxy acid” value worked out at 7.50 ± 2.57 ng/mL; the “Cmax of the hydroxy acid, range” value is recorded as 4.66 + 12.32 ng ml-1; the “plasma concentration on day 2, before administration of the second dose” value was “undetectable”; the “terminal t1/2 of the hydroxy acid” value was found to be 2.82 ± 0.85 h. Besides, in series [1] (human, in vivo, po, 1.5 mg), the “AUC(t) of hydroxy acid, oral” value amounted to 31.41 ng/h/mL.
The Cmax is the highest concentration seen after dosing. By half-life is commonly meant the time in which the quantity being followed falls by half. In general, Tmax refers to the time at which the peak concentration occurs. Consider `CC[C@@]1(O)C(=O)OCc2c1cc1n(c2=O)Cc2cc3c(CN(C)C)c(O)ccc3nc2-1` [topotecan, (S)-9-dimethylaminomethyl-10-hydroxycamptothecin hydrochloride], for which, in series [2], the “bioavailability after oral administration in dogs” value is listed as 35.7%. Also, the “Cmax, i.v. (individual patients)” value in series [1] (Table I, patients 1-12 in order, i.v. 1.5 mg m-2) was 41.08 ng/mL and 35.92 ng/mL and 43.86 ng/mL and 33.40 ng/mL and 47.18 ng/mL and 40.35 ng/mL and 41.41 ng/mL and 41.21 ng/mL and 42.11 ng/mL and 25.35 ng/mL and 19.57 ng/mL. Moreover, in series [1] (setting [4]), the “Cmax, oral (individual patients)” value was 5.93 ng/mL and 5.16 ng/mL and 5.45 ng/mL and 5.71 ng/mL and 7.14 ng/mL and 4.71 ng/mL and 5.08 ng/mL and 6.48 ng/mL and 6.67 ng/mL and 5.38 ng/mL and 6.93 ng/mL. Moreover, the “Tmax, oral (individual patients)” value in series [1] (setting [4]) is 0.5 h (3×) and 1.03 h (2×) and 0.33 h and 1.13 h and 0.52 h and 0.55 h and 2.5 h and 1.5 h and 1.0 h. In addition, in series [1] (Table I, patients 1-12 in order, ratio AUC(t) oral/i.v.), the “F (individual patients)” value is 21% and 30% (2×) and 25% and 38% and 23% (2×) and 22% and 45% and 34% and 35% and 36%. In addition, the “plasma concentration on day 2, before administration of the second dose” value in series [1] (day after oral dose 1.5 mg m-2, LLQ 0.1 ng ml-1) is reported as “undetectable”. Further, the Cmax in series [1] (human, in vivo, iv, 1.5 mg, i.v. (individual patients)) came out at 41.8 ng/mL; in series [1] (human, plasma, iv, 1.5 mg, mean of 12 patients, i.v. 1.5 mg m-2), 37.8 ng/mL; in series [1] (human, plasma, po, 1.5 mg, mean of 12 patients, oral 1.5 mg m-2) it was 5.88 ng/mL; in series [1] (human, plasma, po, 1.5 mg, oral (individual patients), Table I, patients 1-12 in order, oral 1.5 mg m-2), 5.95 ng/mL. Further, the clearance in series [1] (human, plasma, iv, 1.5 mg) is 535 to 1070 mL/min; in series [1] (human, plasma, iv, 1.5 mg m-2), 824 ± 154 mL/min. The half-life is 0.186 h in series [1] (human, plasma, iv, 1.5 mg m-2, half-life for the initial decline of the plasma concentration-time curve (t1/2 alpha), mean ± s.d., ten patients fitted with a biexponential model); 1.8 h in series [1] (human, plasma, iv, 1.5 mg m-2, t1/2 beta, after i.v., the patient with the highest bioavailability of 45%); 2.4 h in series [1] (human, plasma, iv, 1.5 mg m-2, t1/2 beta, mean ± s.d., n=12); 1.72 to 2.93 h in series [1] (human, plasma, iv, 1.5 mg m-2, t1/2 beta, range, n=12); 3.2 h in series [1] (human, plasma, po, 1.5 mg m-2, t1/2 beta, after oral administration, the patient with the highest bioavailability of 45%); 2.43 h in series [1] (human, plasma, po, 1.5 mg m-2, t1/2 beta, mean, n=10). The same compound yielded a half-life in series [1] (human, plasma, po, 1.5 mg m-2, t1/2 beta, range, n=10) of 1.02 to 3.2 h. The Vd in series [1] (human, plasma, iv, mean ± s.d., n=12) was 128 L; in series [1] (human, plasma, iv, range, n=12) it was 86 to 231 L. For the same compound, the time of peak concentration (Tmax) in series [1] (human, plasma, po, 1.5 mg m-2, Tmax, range of the other 11 patients, without the patient with Tmax 2.5 h) is 0.33 to 1.5 h; in series [1] (human, plasma, po, 1.5 mg, time to maximum plasma concentration (Tmax), median, oral 1.5 mg m-2, 12 patients), 0.78 h; in series [1] (human, plasma, po, 1.5 mg, time to maximum plasma concentration (Tmax), range, oral 1.5 mg m-2, 12 patients) it was 0.33 to 2.5 h. The “AUC(t), range” value in series [1] (i.v. 1.5 mg m-2) lay in the range of 32.50 to 73.68 ng/h/mL; in series [1] (oral 1.5 mg m-2), 9.38 to 25.37 ng/h/mL. In addition, the “AUCoo, range” value in series [1] (i.v. 1.5 mg m-2) lay within 43.70 to 81.08 ng/h/mL. In addition, the “bioavailability (ratio of oral to i.v. AUC(t))” value in series [1] (mean (s.d. 7.7), oral drinking solution 1.5 mg m-2 day 1 vs 30 min i.v. infusion 1.5 mg m-2 day 2, 12 patients) is listed as 30%. In addition, the “bioavailability if curves extrapolated to infinity (AUCoo)” value in series [1] (mean (s.d. 11.5), oral vs i.v. 1.5 mg m-2) is listed as 32%. In addition, the “AUC(t)” value was 49.87 ± 10.87 ng/h/mL in series [1] (mean ± s.d., i.v. 1.5 mg m-2) and 15.18 ± 5.51 ng/h/mL in series [1] (mean ± s.d., oral 1.5 mg m-2, up to latest measured time point). Moreover, the “total plasma clearance (Cl)” value in series [1] (mean ± s.d., i.v. 1.5 mg m-2 30 min infusion, n=12) is reported as 824+ 154 ml min-1. Moreover, the AUCoo in series [1] (mean ± s.d., i.v. 1.5 mg m-2, extrapolated to infinity) was 61.02 ± 10.57 ng/h/mL. The “bioavailability (ratio of oral to i.v. AUC(t)), range” value in series [1] (range over 12 patients, oral vs i.v. 1.5 mg m-2) is 21-45%. The acute side-effects result in series [3] (i.v. and oral 1.5 mg m-2, 12 patients) is given as “Neither i.v. nor oral administration was associated with any significant acute side-effect”. In series [3] (oral 1.5 mg m-2 in 200 ml, 12 patients), the “tolerability of the oral drinking solution” value is recorded as “well tolerated”.
